From patent US4985412A, “Phosphoric acid ester, process for preparing the same, and detergent composition containing the same” (Kao Corporation, priority 1987, dated 1991)

Experiments:
[1] = Foaming capability (Reverse Stirring Method); format: physicochemical; settings: for Foaming capability (Foam volume): reverse stirring, 40 °C, 1,000 rpm, 30 sec (reversed at every 5 sec), measured after 10 sec
Method: * The conditions of the reverse stirring
Rotation speed: 1,000 rpm
Stirring time: 30 sec. (reversed at every 5 sec.)
Measurement: performed after the test sample was left for 10 sec.

Krafft point = format: physicochemical
[2] = comparison with sodium dodecyl phosphate, in words

Structure (SMILES)	Foaming capability (Foam volume) [1] [mL]	Krafft point (Krafft point) [°C]	Foaming capability compared with sodium dodecyl phosphate [1, 2]	Krafft point compared with sodium dodecyl phosphate (Krafft point; [2])
CCCCCCCCCCCCOP(=O)(O)O [1-sodium dodecyl phosphate]	260	32	–	–
CCCCCCCCCCCCOP(=O)(O)OCC(O)CN(C)CC(=O)O (centres unmarked) [Example 1, sodium dodecyl 2-hydroxy-3-N-carboxymethyl-N-methylammoniopropyl phosphate]	250	< 0	almost the same foaming capability	extremely lower Krafft point
CCCCCCCCCCCCOP(=O)([O-])OCC(O)CO.[Na+] (centres unmarked) [sodium dodecyl 2,3-dihydroxypropyl phosphate]	240	< 0	–	–
